Read-outs that look alike come from different tables or passages of the source.
Assays:
[1] = test system: Jurkat cells; experiment: Jurkat flow cytometry (AnnexinA5/PI viability, DiIC1(5) MMP, monobromobimane GSH, cell cycle); format: cell-based, human; details: for IC50: 48 h incubation
Method: Jurkat cells The cells were counted in MUSE Cell Analyzer using MUSE® Count &Viability Assay Kit (Merck-Millipore, Billerica, MA, USA) and adjusted to a density of 1.0 x 10^5/ml in RPMI 1640 medium (with 10% FCS and 1% glutamine). 9.000 cells per well per 90 µL were seeded into 96 well culture plates. The 30 mM prodrug stock solutions in DMSO were diluted to 300 µM, 100 µM, 30 µM and 10 µM in cell culture medium and 10 µL of the dilutions was pipetted to the cells, receiving final test concentrations of 30 µM, 10 µM, 3 µM and 1 µM. Every concentration was tested in triplicates. Cells with corresponding amounts of DMSO served as negative controls. After 48 h cells were mixed and 25 µL of […]
the cell suspension was incubated with 200 µL of freshly prepared staining solution, consisting of AnnexinA5-Fitc (1 µL), 1,1′,3,3,3′,3′-hexamethylindodicarbocyanine iodide (DiIC1(5), 0.4 µL) (both from ThermoFisher Scientific, Waltham, MA, USA), propidium iodide (PI, 67 ng) and monobromobimane (MBB, 33 µM, both from Sigma-Aldrich, Taufkirchen, Germany) per 1 ml Ringer’s solution (Fresenius Kabi AG, Bad Homburg, Germany). Cells were incubated for 20 min at 4°C and then analyzed in Gallios cytofluorometer™ (Beckman Coulter, Fullerton, CA, USA). Fitc and propidium iodide were excited at 488 nm; Fitc fluorescence was recorded on the FL1 sensor (525/38 nm band pass, BP) and propidium iodide fluorescence was detected on FL3 sensor (620/30 nm BP), DiIC1(5) fluorescence was excited at 638 nm and detected on FL6 sensor at 675/20 nm BP, and monobromobimane fluorescence was excited at 405 nm and detected on FL9 sensor at 430/40 nm BP. To eliminate any fluorescence bleed-through, electronic compensation was used. Data were analyzed employing Kaluza™ software Version 1.2 (Beckman Coulter, Fullerton, CA, USA) and processed in Microsoft Excel (Figures S51-S54, Table S5). Cells negative for Annexin A5-Fitc and propidium iodide were considered viable. IC50 values were determined by fitting the % values of Ax-PI- cells versus drug concentration with a sigmoidal curve using GraphPad Prism software. Reduced glutathione (an intracellular thiol) can be detected by monobromobimane, a dye that becomes fluorescent after non-enzymatic binding to thiols.[S3] For analysis of amount of mitochondrial membrane potential or reduced glutathione the mean fluorescence index (MFI) was determined from viable cells by gating on Ax -PI- events.
Table S5. Effects of the prodrugs on the viability of Jurkat cell lines (IC50 values) after 48

[2] = test system: SAS cells; experiment: Cytotoxicity MTT assay, SAS; format: cell-based, human; details: for EC50: read-out: 50% cell survival (EC50)
Method: (§1) Optimization of concentration of prodrugs and controls / MTT assay
(§2) The MTT assay was also applied to assess the impact of various drugs (0.01-100 µM) on the viability of the two human head and neck squamous carcinoma cell (HNSCC) lines SAS and FaDu as well as retinal pigment epithelial ARPE-19 cells and human fibroblasts (HF). Cells were seeded into 96-well plates at concentrations of 4000 and 2000 cells per […]
(§3) h before exposure to the drugs. All drug dilutions were prepared from 20 mM stock solutions in DMSO. The final DMSO concentration was set to 0.5% in all sample s including control. After completion of the treatment, the wells were processed according to the routine MTT protocol as described above; the formazan absorbance was then measured on a Biotek Epoch Microplate Spectrophotometer at 590 nm and corrected for the background signal at 620 nm. N≥3 independent experiments were performed for each drug candidate, cell type and treatment interval. Cell survival was recorded as function of the drug concentration, and dose-response curves were fitted with the Boltzmann equation where appropriate. We calculated the half-maximal response (EC50) as well as the EC20 (80% survival) according to the line curve (see Tables S6-S8). EC20-values were used as a basis to select the compound-specific non-toxic drug concentrations for combination with radiotherapy.

[3] = test system: FaDu cells; experiment: Cytotoxicity MTT assay, FaDu; format: cell-based, human; details: for EC50: read-out: 50% cell survival (EC50)
Method: as §1, §2, §3

[4] = test system: ARPE-19 cells; experiment: Cytotoxicity MTT assay, ARPE-19; format: cell-based; details: read-out: 50% cell survival (EC50)
Method: Study of synergy of prodrugs with radiotherapy for SAS and FaDu cells
as §1, §2, §3

[5] = test system: SAS cells; experiment: Clonogenic assay (colony formation), SAS; format: cell-based, human; details: for Relative clonogenic survival: 48 h exposure, untreated control = 1
Method: (§4) Optimization of concentration of prodrugs and controls / clonogenic assay The clonogenic survival assay is a classical approach to monitor radioresponse and drug- induced radiosensitization in cancer cells. We therefore initially determined whether the supposedly non -toxic drug concentrations defined for combinatorial treatment testing affect single cell colony formation capacity. For this pu rpose, exponentially growing SAS and FaDu cells were dissociated, single cell suspensions were prepared in standard DMEM and seeded in 6 -well plates at […]
(§5) defined low density (150-300 cells in 1 ml per well). After 8 h of incubation to allow cell adherence, 50% of the supernatant was exchanged by media containing the respective prodrugs at 2x concentration and exposed for 48 h. Treatment was then terminated by medium removal, and cells were allowed to grow for a period of ≥5-6 cell divisions estimated from the cell line-specific doubling times of the respective untreated controls (~7 days for SAS and ~10 days for FaDu cells). Control cells were always handled in parallel to the treated cells and thus exposed to the corresponding DMSO concentration(s). After the defined growth intervals, cells were fixed, stained and colonies of >50 cells were manually counted at low magnification to calculate plating efficiencies as the number of counted colonies relative to the number of seeded cells. Drug effect on clonogenic survival was then estimated by normalizing the colony formation of control cells to 1 (Table S9). […]

[6] = test system: FaDu cells; experiment: Clonogenic assay (colony formation), FaDu; format: cell-based, human; details: for Relative clonogenic survival: 48 h exposure, untreated control = 1
Method: as §4, §5

SMILES | effect on MMP ([1]; 48 h) | effect on intracellular GSH amount ([1]; 48 h) | IC50 [1] | 80% cell survival (EC20) ([2]; 24h) | EC50 ([2]; 24h) | 80% cell survival (EC20) ([2]; 48h) | EC50 ([2]; 48h) | 80% cell survival (EC20) ([3]; 24h) | EC50 ([3]; 24h) | 80% cell survival (EC20) ([3]; 48h) | EC50 ([3]; 48h) | EC50 ([4]; ARPE-19, 24h) | EC50 ([4]; ARPE-19, 48h) | Relative clonogenic survival ([5]; 25 µM) | Relative clonogenic survival ([6]; 25 µM) | other results
CC1(C)OB(c2ccc(COC(=O)N(Cc3cn(Cc4ccc(Cn5cc(Cc6ccccc6)nn5)cc4)nn3)[c-]3cccc3)cc2)OC1(C)C.[Fe+2].c1cc[cH-]c1 [2c] | decrease | unaffected | 5 ± 2 µM | > 50 µM | > 50 µM | 10.4 ± 6.8 µM | > 50 µM | > 50 µM | > 50 µM | 18.0 ± 5.1 µM | > 50 µM | > 50 µM | > 50 µM | 0.70 ± 0.10 | 0.20 ± 0.08 | effect on cell cycle ([1]; 48 h): cell-cycle arrest in the G0/G1 phase; mechanism of cell death ([1]; 48 h, Annexin A5/PI): mainly via necrosis; Relative clonogenic survival ([5]; 10 µM): 0.78 ± 0.13; growth of colonies reduced to ([5]; 25 µM): 70 ± 10%; Relative clonogenic survival ([6]; 10 µM): 0.86 ± 0.13; growth of colonies reduced to ([6]; 25 µM): 20 ± 8%
CC1(C)OB(c2ccc(COC(=O)N(Cc3cccc(CN4CCCCC4)c3)[c-]3cccc3)cc2)OC1(C)C.[Fe+2].c1cc[cH-]c1 [5b] | – | – | 7.2 ± 0.1 µM | 7.0 ± 1.5 µM | 18.7 ± 4.7 µM | 2.4 ± 1.3 µM | 5.8 ± 0.8 µM | 11.5 ± 1.3 µM | 26.3 ± 3.4 µM | – | 19.8 ± 0.3 µM | 40.4 ± 2.5 µM | 26.6 ± 8.3 µM | – | – | Relative clonogenic survival ([5]; 0.5 µM): 0.96 ± 0.06; Relative clonogenic survival ([5]; 1 µM): 0.76 ± 0.06; Relative clonogenic survival ([5]; 2.5 µM): 0.36 ± 0.15; colony formation reduced to ([5]; 10-fold lower dose than 25 µM): 36 ± 15%; Relative clonogenic survival ([6]; 0.5 µM): 0.71 ± 0.07; Relative clonogenic survival ([6]; 1 µM): 0.75 ± 0.11; Relative clonogenic survival ([6]; 2.5 µM): 0.36 ± 0.10; colony formation reduced to ([6]; 10-fold lower dose than 25 µM): 36 ± 10%
CCOC(=O)CCCCCn1cc(CN(C(=O)OCc2ccc(B3OC(C)(C)C(C)(C)O3)cc2)[c-]2cccc2)nn1.[Fe+2].c1cc[cH-]c1 [compound 1] | slight increase | slight increase | 30 ± 4 µM | – | – | – | – | – | – | – | – | – | – | – | – | –
[Fe+2].c1cc[cH-]c1.c1cc[cH-]c1 [compound 6, ferrocene] | – | – | > 100 µM | > 50 µM | > 50 µM | > 50 µM | > 50 µM | > 50 µM | > 50 µM | > 50 µM | > 50 µM | > 50 µM | > 50 µM | 0.88 ± 0.10 | 0.99 ± 0.08 | –
